Measured values from US12018016B2, “Aryl sulfonyl (hydroxy) piperidines as CCR6 inhibitors” (CHEMOCENTRYX, INC., priority 2021, dated 2024).

Target: T1, human CCR6 (Homo sapiens, UniProt P51684)
T1 construct: expressed in transfected cells; host or cells: Ba/F3 cells (mouse pro-B line)
T1 sequence (P51684 1-374): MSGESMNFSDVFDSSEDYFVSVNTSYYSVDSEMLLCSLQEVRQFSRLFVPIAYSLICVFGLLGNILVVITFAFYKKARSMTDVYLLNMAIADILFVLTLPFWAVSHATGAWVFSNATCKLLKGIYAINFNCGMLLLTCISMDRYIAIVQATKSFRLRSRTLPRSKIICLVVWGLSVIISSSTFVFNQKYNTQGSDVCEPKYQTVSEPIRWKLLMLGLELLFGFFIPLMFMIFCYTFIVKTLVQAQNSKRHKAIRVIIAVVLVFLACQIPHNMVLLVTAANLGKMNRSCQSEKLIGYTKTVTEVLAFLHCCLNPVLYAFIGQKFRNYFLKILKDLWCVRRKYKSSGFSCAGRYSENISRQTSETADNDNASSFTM
Assay: Migration assay (chemotaxis, ChemoTX)
Type: cell-based
Details: hCCR6-transfected Ba/F3 cells in human serum, migration to recombinant human CCL20 10 nM, 37° C. 45 minutes; read-out: Potency (IC50 value in the migration assay)
Outline: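 Ba/F3 cells transfected with human CCR6 and butyrate-primed for 24 h were suspended at 4 million/ml in human serum with compound, serially diluted from a 1 μM final top concentration. Cells migrated through a 5-μm polycarbonate membrane toward 10 nM human CCL20 for 45 min at 37 °C. Migrated cells were quantified by CyQUANT fluorescence.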

Row | IC50 | Compound
1 | < 1 nM | NC(=O)c1ncc(-c2ccc(S(=O)(=O)N3CC[C@@H](Nc4ccc(C(F)(F)F)cn4)[C@@H](O)C3)cc2)s1 [Example 42, 5-(4-(((3S,4R)-3-Hydroxy-4-((5-(trifluoromethyl)pyridin-2-yl)amino)piperidin-1-yl)sulfonyl)phenyl)thiazole-2-carboxamide]
2 | < 1 nM | Cc1cc(-c2ccc(S(=O)(=O)N3CC[C@@H](Nc4ccc(C(F)(F)F)cn4)[C@@H](O)C3)cc2)cc2c(C#N)n[nH]c12 [Example 43, 5-(4-(((3S,4R)-3-hydroxy-4-((5-(trifluoromethyl)pyridin-2-yl)amino)piperidin-1-yl)sulfonyl)phenyl)-7-methyl-1H-indazole-3-carbonitrile]
3 | < 1 nM | COc1cc(-c2ccc(S(=O)(=O)N3CC[C@@H](Nc4ccc(C(F)(F)F)cn4)[C@@H](O)C3)cc2)cc(C(N)=O)n1 [Example 44, 4-(4-(((3S,4R)-3-Hydroxy-4-((5-(trifluoromethyl)pyridin-2-yl)amino)piperidin-1-yl)sulfonyl)phenyl)-6-methoxypicolinamide]
4 | < 1 nM | Cc1nc2[nH]ccc2c(C)c1-c1ccc(S(=O)(=O)N2CC[C@@H](Nc3ccc(C(F)(F)F)cn3)[C@@H](O)C2)cc1 [Example 45, (3S,4R)-1-((4-(4,6-dimethyl-1H-pyrrolo[2,3-b]pyridin-5-yl)phenyl)sulfonyl)-4-((5-(trifluoromethyl)pyridin-2-yl)amino)piperidin-3-ol]
5 | < 1 nM | Cc1nc2[nH]cc(C#N)c2cc1-c1ccc(S(=O)(=O)N2CC[C@@H](Nc3ccc(C(F)(F)F)cn3)[C@@H](O)C2)cc1 [Example 46, 5-(4-(((3S,4R)-3-hydroxy-4-((5-(trifluoromethyl)pyridin-2-yl)amino)piperidin-1-yl)sulfonyl)phenyl)-6-methyl-1H-pyrrolo[2,3-b]pyridine-3-carbonitrile]
6 | < 1 nM | O=c1[nH]c2ccc(-c3ccc(S(=O)(=O)N4CC[C@@H](Nc5ccc(C(F)(F)F)cn5)[C@@H](O)C4)cc3)cc2[nH]1 [Example 47, 5-(4-(((3S,4R)-3-hydroxy-4-((5-(trifluoromethyl)pyridin-2-yl)amino)piperidin-1-yl)sulfonyl)phenyl)-1,3-dihydro-2H-benzo[d]imidazol-2-one]
7 | < 1 nM | O=C1NCc2ncc(-c3ccc(S(=O)(=O)N4CC[C@@H](Nc5ccc(C(F)(F)F)cn5)[C@@H](O)C4)cc3)cc21 [Example 48, 3-(4-(((3S,4R)-3-hydroxy-4-((5-(trifluoromethyl)pyridin-2-yl)amino)piperidin-1-yl)sulfonyl)phenyl)-6,7-dihydro-5H-pyrrolo[3,4-b]pyridin-5-one]
8 | < 1 nM | Cn1nc(N)c2cc(-c3ccc(S(=O)(=O)N4CC[C@@H](Nc5ccc(C(F)(F)F)cn5)[C@@H](O)C4)cc3)ccc21 [Example 49, (3S,4R)-1-((4-(3-amino-1-methyl-1H-indazol-5-yl)phenyl)sulfonyl)-4-((5-(trifluoromethyl)pyridin-2-yl)amino)piperidin-3-ol]
9 | < 1 nM | CNC(=O)c1cc(-c2ccc(S(=O)(=O)N3CC[C@@H](Nc4ccc(C(F)(F)F)cn4)[C@@H](O)C3)cc2)ccn1 [Example 50, 4-(4-(((3S,4R)-3-hydroxy-4-((5-(trifluoromethyl)pyridin-2-yl)amino)piperidin-1-yl)sulfonyl)phenyl)-N-methylpicolinamide]
10 | < 1 nM | NC(=O)c1cc(-c2ccc(S(=O)(=O)N3CC[C@@H](Nc4ccc(C(F)(F)F)cn4)[C@@H](O)C3)cc2)cnc1O [Example 51, 2-Hydroxy-5-(4-(((3S,4R)-3-hydroxy-4-((5-(trifluoromethyl)pyridin-2-yl)amino)piperidin-1-yl)sulfonyl)phenyl)nicotinamide]
11 | < 1 nM | O=S(=O)(c1ccc(-c2ccnc(-c3ncc[nH]3)c2)cc1)N1CC[C@@H](Nc2ccc(C(F)(F)F)cn2)[C@@H](O)C1 [Example 52, (3S,4R)-1-((4-(2-(1H-imidazol-2-yl)pyridin-4-yl)phenyl)sulfonyl)-4-((5-(trifluoromethyl)pyridin-2-yl)amino)piperidin-3-ol]
12 | < 1 nM | NC(=O)c1cc(-c2ccc(S(=O)(=O)N3CC[C@@H](Nc4ccc(C(F)(F)F)cn4)[C@@H](O)C3)cc2)cnc1N [Example 53, 2-Amino-5-(4-(((3S,4R)-3-hydroxy-4-((5-(trifluoromethyl)pyridin-2-yl)amino)piperidin-1-yl)sulfonyl)phenyl)nicotinamide]
13 | < 1 nM | O=c1[nH]c2cc(-c3ccc(S(=O)(=O)N4CC[C@@H](Nc5ccc(C(F)(F)F)cn5)[C@@H](O)C4)cc3)cnc2[nH]1 [Example 54, 6-(4-(((3S,4R)-3-hydroxy-4-((5-(trifluoromethyl)pyridin-2-yl)amino)piperidin-1-yl)sulfonyl)phenyl)-1,3-dihydro-2H-imidazo[4,5-b]pyridin-2-one]
14 | < 1 nM | Nc1n[nH]c2cc(-c3ccc(S(=O)(=O)N4CC[C@@H](Nc5ccc(C(F)(F)F)cn5)[C@@H](O)C4)cc3)ccc12 [Example 55, (3S,4R)-1-((4-(3-amino-1H-indazol-6-yl)phenyl)sulfonyl)-4-((5-(trifluoromethyl)pyridin-2-yl)amino)piperidin-3-ol]
15 | < 1 nM | Cc1c(-c2ccc(S(=O)(=O)N3CC[C@@H](Nc4ccc(C(F)(F)F)cn4)[C@@H](O)C3)cc2)cnc2[nH]cc(C#N)c12 [Example 56, 5-(4-(((3S,4R)-3-hydroxy-4-((5-(trifluoromethyl)pyridin-2-yl)amino)piperidin-1-yl)sulfonyl)phenyl)-4-methyl-1H-pyrrolo[2,3-b]pyridine-3-carbonitrile]
16 | < 1 nM | N#Cc1cc(-c2ccc(S(=O)(=O)N3CC[C@@H](Nc4ccc(C(F)(F)F)cn4)[C@@H](O)C3)cc2)ccn1 [Example 57, 4-(4-(((3S,4R)-3-hydroxy-4-((5-(trifluoromethyl)pyridin-2-yl)amino)piperidin-1-yl)sulfonyl)phenyl)picolinonitrile]
17 | < 1 nM | COc1c(-c2ccc(S(=O)(=O)N3CC[C@@H](Nc4ccc(C(F)(F)F)cn4)[C@@H](O)C3)cc2)cnc2[nH]ccc12 [Example 58, (3S,4R)-1-((4-(4-methoxy-1H-pyrrolo[2,3-b]pyridin-5-yl)phenyl)sulfonyl)-4-((5-(trifluoromethyl)pyridin-2-yl)amino)piperidin-3-ol]
18 | < 1 nM | Cc1c(-c2ccc(S(=O)(=O)N3CC[C@@H](Nc4ccc(C(F)(F)F)cn4)[C@@H](O)C3)cc2)cnc2[nH]ccc12 [Example 60, (3S,4R)-1-((4-(4-methyl-1H-pyrrolo[2,3-b]pyridin-5-yl)phenyl)sulfonyl)-4-((5-(trifluoromethyl)pyridin-2-yl)amino)piperidin-3-ol]
19 | < 1 nM | N#Cc1c[nH]c2ncc(-c3ccc(S(=O)(=O)N4CC[C@@H](Nc5ccc(C(F)(F)F)cn5)[C@@H](O)C4)cc3)cc12 [Example 61, 5-(4-(((3S,4R)-3-hydroxy-4-((5-(trifluoromethyl)pyridin-2-yl)amino)piperidin-1-yl)sulfonyl)phenyl)-1H-pyrrolo[2,3-b]pyridine-3-carbonitrile]
20 | < 1 nM | Cc1c(-c2ccc(S(=O)(=O)N3CC[C@@H](Nc4ccc(C(F)(F)F)cn4)[C@@H](O)C3)cc2)c(C)[n+]([O-])c2[nH]ccc12 [Example 62, 5-(4-(((3S,4R)-3-hydroxy-4-((5-(trifluoromethyl)pyridin-2-yl)amino)piperidin-1-yl)sulfonyl)phenyl)-4,6-dimethyl-1H-pyrrolo[2,3-b]pyridine 7-oxide]
21 | < 1 nM | Cc1nc2[nH]cc(C#N)c2c(C)c1-c1ccc(S(=O)(=O)N2CC[C@@H](Nc3ccc(C(F)(F)F)cn3)[C@@H](O)C2)cc1 [Example 63, 5-(4-(((3S,4R)-3-hydroxy-4-((5-(trifluoromethyl)pyridin-2-yl)amino)piperidin-1-yl)sulfonyl)phenyl)-4,6-dimethyl-1H-pyrrolo[2,3-b]pyridine-3-carbonitrile]
